Reference: patent US20250197372A1 (priority 2020, published 2025)
Like-named read-outs stand apart in the source and are kept apart here.

Columns and labels:
Type in all cases: biochemical
[1] = target: T1, recombinant alpha-glucosidase I (human full-length glucosidase I, Glu 1) (Homo sapiens, UniProt Q13724); test: Alpha-glucosidase I assay (Amplex Red glucose detection, synthetic trisaccharide substrate)
T1 construct: 6-His (C); made in house; host or cells: HEK-293T cells transduced with BacMam virus (virus raised in Sf9)
T1 sequence (Q13724 1-837): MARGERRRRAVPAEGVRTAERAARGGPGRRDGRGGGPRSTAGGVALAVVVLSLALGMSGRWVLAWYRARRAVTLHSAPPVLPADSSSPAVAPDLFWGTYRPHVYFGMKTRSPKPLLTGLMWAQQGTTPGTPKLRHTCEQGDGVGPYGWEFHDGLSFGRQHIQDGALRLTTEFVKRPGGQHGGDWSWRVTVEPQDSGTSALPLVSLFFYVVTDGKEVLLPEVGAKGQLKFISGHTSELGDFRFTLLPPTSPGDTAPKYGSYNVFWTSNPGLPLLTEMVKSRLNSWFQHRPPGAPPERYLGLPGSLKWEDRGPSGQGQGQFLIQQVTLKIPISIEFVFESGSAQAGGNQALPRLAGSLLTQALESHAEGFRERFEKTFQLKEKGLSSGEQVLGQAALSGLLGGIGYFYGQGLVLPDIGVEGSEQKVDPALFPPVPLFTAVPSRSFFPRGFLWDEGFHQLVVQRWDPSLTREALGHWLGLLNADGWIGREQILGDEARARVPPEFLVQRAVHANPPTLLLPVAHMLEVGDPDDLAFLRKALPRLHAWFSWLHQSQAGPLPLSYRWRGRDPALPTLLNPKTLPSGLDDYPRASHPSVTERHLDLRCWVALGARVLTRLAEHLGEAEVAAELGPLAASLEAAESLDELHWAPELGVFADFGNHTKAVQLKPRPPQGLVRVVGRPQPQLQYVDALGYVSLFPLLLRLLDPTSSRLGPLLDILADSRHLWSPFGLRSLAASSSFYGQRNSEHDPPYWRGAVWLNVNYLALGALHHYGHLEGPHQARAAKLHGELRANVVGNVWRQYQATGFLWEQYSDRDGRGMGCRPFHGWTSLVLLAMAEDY
Outline: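 Human full-length glucosidase I, His-tagged, […] and Ni-purified. Enzyme preincubated with compound dilutions 60 min at 37° C, then synthetic trisaccharide substrate 90 min at 37° C; stopped with 1.5M Tris pH 8.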

[2] = target: recombinant human GAA (acid alpha-glucosidase) (Homo sapiens, UniProt P10253); test: Acid alpha-glucosidase (GAA) assay (4-methylumbelliferyl-alpha-D-pyranoside substrate, fluorescence)
Outline: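 Recombinant human enzyme preincubated 60 min at 37 °C with compound dilutions, then 4-methylumbelliferyl-alpha-D-pyranoside substrate added for 20 min at 37 °C. Stopped with glycine/NaOH pH 10; methylumbelliferone fluorescence (ex 365, em 440 nm) versus untreated enzyme; IC50 by 4-PL fit.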

[3] = target: rat maltase (partially purified alpha-glucosidase from intestinal rat powder); test: Intestinal alpha-glucosidase assay, maltose substrate (Glucose GO Kit)
Outline: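 Partially purified alpha-glucosidase from rat intestinal powder was preincubated 60 min at 37 °C with serial compound dilutions, then given maltose or sucrose and incubated 30 min at 37 °C.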

[4] = target: rat sucrase (partially purified alpha-glucosidase from intestinal rat powder) (Rattus norvegicus, UniProt P23739); test: Intestinal alpha-glucosidase assay, sucrose substrate (Glucose GO Kit)
Chain of rat sucrase (partially purified alpha-glucosidase from intestinal rat powder) (P23739 whole entry): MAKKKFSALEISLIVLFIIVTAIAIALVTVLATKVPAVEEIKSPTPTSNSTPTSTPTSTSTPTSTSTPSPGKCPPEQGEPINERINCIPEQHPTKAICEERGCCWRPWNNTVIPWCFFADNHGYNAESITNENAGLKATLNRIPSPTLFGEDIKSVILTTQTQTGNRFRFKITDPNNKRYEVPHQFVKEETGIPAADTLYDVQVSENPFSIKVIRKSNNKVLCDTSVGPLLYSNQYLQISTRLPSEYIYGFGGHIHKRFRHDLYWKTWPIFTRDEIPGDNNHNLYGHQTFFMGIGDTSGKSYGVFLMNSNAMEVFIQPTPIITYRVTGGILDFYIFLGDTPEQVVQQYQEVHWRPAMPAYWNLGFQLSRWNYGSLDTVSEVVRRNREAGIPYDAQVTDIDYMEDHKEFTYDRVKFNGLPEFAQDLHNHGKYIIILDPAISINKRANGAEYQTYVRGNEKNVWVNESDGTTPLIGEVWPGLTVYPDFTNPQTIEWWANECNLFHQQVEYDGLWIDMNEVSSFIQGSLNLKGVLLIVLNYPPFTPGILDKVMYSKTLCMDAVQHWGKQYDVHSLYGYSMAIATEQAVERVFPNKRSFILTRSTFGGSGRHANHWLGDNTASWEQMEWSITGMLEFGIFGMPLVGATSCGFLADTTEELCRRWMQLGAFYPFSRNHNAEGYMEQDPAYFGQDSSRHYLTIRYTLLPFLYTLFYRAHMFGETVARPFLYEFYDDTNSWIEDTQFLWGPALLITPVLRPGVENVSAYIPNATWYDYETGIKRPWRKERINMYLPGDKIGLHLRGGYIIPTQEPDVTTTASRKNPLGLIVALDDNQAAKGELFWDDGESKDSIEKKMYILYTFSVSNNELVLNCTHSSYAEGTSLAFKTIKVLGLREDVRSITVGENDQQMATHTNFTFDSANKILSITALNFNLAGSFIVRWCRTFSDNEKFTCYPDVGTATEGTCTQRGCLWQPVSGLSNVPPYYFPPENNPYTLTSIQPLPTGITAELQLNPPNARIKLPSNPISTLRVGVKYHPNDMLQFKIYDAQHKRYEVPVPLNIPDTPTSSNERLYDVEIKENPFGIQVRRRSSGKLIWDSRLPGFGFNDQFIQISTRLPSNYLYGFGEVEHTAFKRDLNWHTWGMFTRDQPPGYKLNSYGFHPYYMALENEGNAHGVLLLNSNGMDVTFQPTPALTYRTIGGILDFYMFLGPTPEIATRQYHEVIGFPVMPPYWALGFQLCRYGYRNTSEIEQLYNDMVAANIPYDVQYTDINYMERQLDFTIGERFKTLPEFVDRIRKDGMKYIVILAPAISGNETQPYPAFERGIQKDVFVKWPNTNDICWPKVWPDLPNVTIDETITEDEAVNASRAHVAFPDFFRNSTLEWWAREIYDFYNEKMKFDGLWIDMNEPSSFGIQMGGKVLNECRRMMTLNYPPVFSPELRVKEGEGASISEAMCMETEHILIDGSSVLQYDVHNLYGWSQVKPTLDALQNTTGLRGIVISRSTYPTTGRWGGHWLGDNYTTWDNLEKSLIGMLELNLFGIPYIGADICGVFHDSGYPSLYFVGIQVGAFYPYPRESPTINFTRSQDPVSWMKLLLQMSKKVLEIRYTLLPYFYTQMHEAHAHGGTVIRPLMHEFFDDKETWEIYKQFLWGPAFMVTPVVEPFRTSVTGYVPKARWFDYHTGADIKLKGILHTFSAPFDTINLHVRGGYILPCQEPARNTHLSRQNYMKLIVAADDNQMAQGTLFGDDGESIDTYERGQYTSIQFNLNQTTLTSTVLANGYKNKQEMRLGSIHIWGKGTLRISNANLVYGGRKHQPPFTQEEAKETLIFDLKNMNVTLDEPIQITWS
Outline: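 Enzyme from intestinal rat powder, partially purified, is exposed to compound for 60 min at 37 °C. Disaccharide substrate (maltose or sucrose respectively) then reacts 30 min at 37 °C. Heat-stopped samples are assayed for glucose, and percent inhibition versus concentration gives IC50 via 4-PL.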

[5] = Glucosidase 1, read-out: Glu 1 IC50

Compound | IC50 [1, 5] [nM] | IC50 [2] [nM] | IC50 [3] [nM] | IC50 [4] [nM] | IC50 [1] [nM]
COc1cc(NCCc2ccc(CCN3C[C@H](O)[C@@H](O)[C@H](O)[C@H]3CO)cc2)cc(-c2ncccn2)c1 [Compound 1156, (2R,3R,4R,5S)-2-(hydroxymethyl)-1-{2-[4-(2-{[3-methoxy-5-(pyrimidin-2-yl)phenyl]amino}ethyl)phenyl]ethyl}piperidine-3,4,5-triol] | 1270 | 814 | 287 | 610 | 
COc1cc(NCCc2ccc(CCN3C[C@H](O)[C@@H](O)[C@H](O)[C@H]3CO)cc2)cc(-c2cccnn2)c1 [Compound 1157, (2R,3R,4R,5S)-2-(hydroxymethyl)-1-{2-[4-(2-{[3-methoxy-5-(pyridazin-3-yl)phenyl]amino}ethyl)phenyl]ethyl}piperidine-3,4,5-triol] | 336 | 292 | 107 | 228 | 
OC[C@@H]1[C@@H](O)[C@H](O)[C@@H](O)CN1CCc1ccc(CCNc2cc(Cl)cc(-c3ccco3)c2)cc1 [Compound 1159, (2R,3R,4R,5S)-1-{2-[4-(2-{[3-chloro-5-(furan-2-yl)phenyl]amino}ethyl)phenyl]ethyl}-2-(hydroxymethyl)piperidine-3,4,5-triol] | 183 | < 1 | 25 | 847 | 
OC[C@@H]1[C@@H](O)[C@H](O)[C@@H](O)CN1CCc1ccc(CCNc2cc(Cl)cc(C3=CCOCC3)c2)cc1 [Compound 1160, (2R,3R,4R,5S)-1-{2-[4-(2-{[3-chloro-5-(3,6-dihydro-2H-pyran-4-yl)phenyl]amino}ethyl)phenyl]ethyl}-2-(hydroxymethyl)piperidine-3,4,5-triol] | 1570 | 24 | 75 | 931 | 
OC[C@@H]1[C@@H](O)[C@H](O)[C@@H](O)CN1CCc1ccc(CCNc2cc(Cl)cc(C3=COCCO3)c2)cc1 [Compound 1161, (2R,3R,4R,5S)-1-{2-[4-(2-{[3-chloro-5-(5,6-dihydro-1,4-dioxin-2-yl)phenyl]amino}ethyl)phenyl]ethyl}-2-(hydroxymethyl)piperidine-3,4,5-triol] | 729 | 84 | 273 | 740 | 
OC[C@@H]1[C@@H](O)[C@H](O)[C@@H](O)CN1CCc1ccc(CCNc2cc(Cl)cc(-c3ncccn3)c2)cc1 [Compound 1162, (2R,3R,4R,5S)-1-{2-[4-(2-{[3-chloro-5-(pyrimidin-2-yl)phenyl]amino}ethyl)phenyl]ethyl}-2-(hydroxymethyl)piperidine-3,4,5-triol] | 508 | 62 | 138 | 476 | 
OC[C@@H]1[C@@H](O)[C@H](O)[C@@H](O)CN1CCc1ccc(CCNc2cc(Cl)cc(-c3cccnn3)c2)cc1 [Compound 1163, (2R,3R,4R,5S)-1-{2-[4-(2-{[3-chloro-5-(pyridazin-3-yl)phenyl]amino}ethyl)phenyl]ethyl}-2-(hydroxymethyl)piperidine-3,4,5-triol] |  | 93 | 309 | 584 | 211
[N-]=[N+]=Nc1ccc(NCc2ccc(-c3ccc(CN4C[C@H](O)[C@@H](O)[C@H](O)[C@H]4CO)cc3)cc2)c([N+](=O)[O-])c1 [Compound 1166, (2R,3R,4R,5S)-1-[(4′-{[(4-azido-2-nitrophenyl)amino]methyl}-[1,1′-biphenyl]-4-yl)methyl]-2-(hydroxymethyl)piperidine-3,4,5-triol] | 184 | 1380 | < 1 | 156 | 
[N-]=[N+]=Nc1ccc(NCc2cccc(CN3C[C@H](O)[C@@H](O)[C@H](O)[C@H]3CO)c2)c([N+](=O)[O-])c1 [Compound 1169, (2R,3R,4R,5S)-1-[(3-{[(4-azido-2-nitrophenyl)amino]methyl}phenyl)methyl]-2-(hydroxymethyl)piperidine-3,4,5-triol] | 68 | 420 | < 1 | < 1 | 
[N-]=[N+]=Nc1ccc(NCc2ccc(CN3C[C@H](O)[C@@H](O)[C@H](O)[C@H]3CO)cc2)c([N+](=O)[O-])c1 [Compound 1170, (2R,3R,4R,5S)-1-[(4-{[(4-azido-2-nitrophenyl)amino]methyl}phenyl)methyl]-2-(hydroxymethyl)piperidine-3,4,5-triol] | 4 | 81 | < 1 | 2 | 
[N-]=[N+]=Nc1ccc(NCCc2cc(CCN3C[C@H](O)[C@@H](O)[C@H](O)[C@H]3CO)ccc2C2CCCCC2)c([N+](=O)[O-])c1 [Compound 1171, (2R,3R,4R,5S)-1-[2-(3-{2-[(4-azido-2-nitrophenyl)amino]ethyl}-4-cyclohexylphenyl)ethyl]-2-(hydroxymethyl)piperidine-3,4,5-triol] | 301 | 2080 | 5660 | 10700 | 
[N-]=[N+]=Nc1ccc(NCCc2ccc(CCN3C[C@H](O)[C@@H](O)[C@H](O)[C@H]3CO)c3c2OCCO3)c([N+](=O)[O-])c1 [Compound 1173, (2R,3R,4R,5S)-1-[2-(8-{2-[(4-azido-2-nitrophenyl)amino]ethyl}-2,3-dihydro-1,4-benzodioxin-5-yl)ethyl]-2-(hydroxymethyl)piperidine-3,4,5-triol] | 157 | 1800 | 48 | 456 | 
[N-]=[N+]=Nc1ccc(NCc2cc(CCN3C[C@H](O)[C@@H](O)[C@H](O)[C@H]3CO)cs2)c([N+](=O)[O-])c1 [Compound 1174, (2R,3R,4R,5S)-1-[2-(5-{[(4-azido-2-nitrophenyl)amino]methyl}thiophen-3-yl)ethyl]-2-(hydroxymethyl)piperidine-3,4,5-triol] | 531 | 230 | < 1 | 1 | 
[N-]=[N+]=Nc1ccc(NCCn2cc(CCN3C[C@H](O)[C@@H](O)[C@H](O)[C@H]3CO)c3ccccc32)c([N+](=O)[O-])c1 [Compound 1177, (2R,3R,4R,5S)-1-[2-(1-{2-[(4-azido-2-nitrophenyl)amino]ethyl}-1H-indol-3-yl)ethyl]-2-(hydroxymethyl)piperidine-3,4,5-triol] | 374 | 5540 | 32 | 883 | 
[N-]=[N+]=Nc1ccc(NCCc2cc(CCN3C[C@H](O)[C@@H](O)[C@H](O)[C@H]3CO)cs2)c([N+](=O)[O-])c1 [Compound 1179, (2R,3R,4R,5S)-1-[2-(5-{2-[(4-azido-2-nitrophenyl)amino]ethyl}thiophen-3-yl)ethyl]-2-(hydroxymethyl)piperidine-3,4,5-triol] | < 1 | 692 | 1 | 181 | 
COc1cc(CN2CCCO2)cc(NCCCCCCN2C[C@H](O)[C@@H](O)[C@H](O)[C@H]2CO)c1 [Compound 1182, (2R,3R,4R,5S)-2-(hydroxymethyl)-1-[6-({3-methoxy-5-[(1,2-oxazolidin-2-yl)methyl]phenyl}amino)hexyl]piperidine-3,4,5-triol] | 47 | 33 | 26 | 179 | 
OC[C@@H]1[C@@H](O)[C@H](O)[C@@H](O)CN1CCCCCCNc1cc(Cl)cc(CN2CCCO2)c1 [Compound 1183, (2R,3R,4R,5S)-1-[6-({3-chloro-5-[(1,2-oxazolidin-2-yl)methyl]phenyl}amino)hexyl]-2-(hydroxymethyl)piperidine-3,4,5-triol] | 154 | 90 | 15 | 94 | 
O=Cc1cc(-c2ncccn2)ccc1NCCCCCCN1C[C@H](O)[C@@H](O)[C@H](O)[C@H]1CO [Compound 1184, 5-(pyrimidin-2-yl)-2-({6-[(2R,3R,4R,5S)-3,4,5-trihydroxy-2-(hydroxymethyl)piperidin-1-yl]hexyl}amino)benzaldehyde] | 84 | 48 | 6 | 65 | 
